Test results as given in ChEMBL document CHEMBL5316293, “Novel Small-Molecule PD-L1 Inhibitor Induces PD-L1 Internalization and Optimizes the Immune Microenvironment” (J Med Chem, 2023).
pIC50, pKd: −log10 of the molar value. Active and inactive are the calls of the source. The rule behind the calls is not given here.

Legend:
[1] = molecular target: Programmed cell death 1 ligand 1 (Homo sapiens, UniProt Q9NZQ7); assay: Binding affinity to human PD-L1 assessed as dissociation constant by MST analysis
Programmed cell death 1 ligand 1, sequence (Q9NZQ7 whole entry): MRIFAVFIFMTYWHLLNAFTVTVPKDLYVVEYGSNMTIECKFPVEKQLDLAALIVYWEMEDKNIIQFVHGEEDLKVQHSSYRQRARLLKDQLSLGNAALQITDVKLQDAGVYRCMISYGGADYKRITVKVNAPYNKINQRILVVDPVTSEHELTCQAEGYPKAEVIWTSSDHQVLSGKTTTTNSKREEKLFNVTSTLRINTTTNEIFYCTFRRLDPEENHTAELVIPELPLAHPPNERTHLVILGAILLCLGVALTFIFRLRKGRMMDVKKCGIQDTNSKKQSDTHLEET

LLC-hPD-L1 [2] = assay: (§1) Antitumor activity against humanized mouse LLC-hPD-L1 cells implanted in hPD-1 knockin C57BL/6 mouse assessed as increase in GzmB level at 10 to 25 mg/kg, ip administered for 12 days starting from day 7 post tumor implantation by flow cytometry analysis; assay type: functional, organism-based; settings: dose 10-25 mg/kg, time 12.0 day
MC38-hPD-L1 [3] = assay: (§2) Antitumor activity against humanized mouse MC38-hPD-L1 cells implanted in hPD-1 knockin C57BL/6 mouse assessed as reduction in M2 macrophages at 10 to 25 mg/kg, ip administered for 12 days starting from day 7 post tumor implantation by flow cytometry analysis; assay type: functional, organism-based; settings: dose 10-25 mg/kg, time 12.0 day
[4] = molecular target: Programmed cell death protein 1/Programmed cell death 1 ligand 1 (Homo sapiens, UniProt Q9NZQ7); assay: Inhibition of europium-labeled PD-1/biotinylated PD-L1 interaction (unknown origin) preincubated for 15 mins with PD-L1 followed by PD-1 addition and measured after 90 mins by TR-FRET assay; assay type: protein-complex assay
Programmed cell death protein 1/Programmed cell death 1 ligand 1, sequence (Q15116 whole entry): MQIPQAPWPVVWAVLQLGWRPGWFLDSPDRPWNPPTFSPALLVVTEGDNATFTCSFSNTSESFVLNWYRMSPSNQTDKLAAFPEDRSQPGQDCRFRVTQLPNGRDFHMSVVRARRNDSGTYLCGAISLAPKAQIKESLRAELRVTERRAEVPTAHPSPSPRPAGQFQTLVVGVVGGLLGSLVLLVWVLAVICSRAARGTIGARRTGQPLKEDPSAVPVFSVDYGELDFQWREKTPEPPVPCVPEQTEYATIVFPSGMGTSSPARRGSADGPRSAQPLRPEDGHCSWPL
Programmed cell death protein 1/Programmed cell death 1 ligand 1, sequence (Q9NZQ7 whole entry): as the sequence (Q9NZQ7 whole entry) above

[5] = molecular target: Programmed cell death protein 1/Programmed cell death 1 ligand 1 (Homo sapiens) (UniProt Q15116+Q9NZQ7); assay: Inhibition of PD-1/PD-L1 interaction in human A549 cells harboring low level PD-L1 expression assessed as increase in transcriptional-mediated bioluminescent signal preincubated with compound followed by washout and further cultured with Jurkat cells transfected with NFAT luciferase by bio-glo reagent based assay; assay type: cell-based; settings: dose 50-200 nM
[6] = Toxicity in ICR mouse assessed as acute side effects at 500 to 5000 mg/kg, po administered via gavage for 2 weeks; assay type: organism-based; settings: in vivo, 336 h, dose 500-5000 mg/kg
[7] = Antitumor activity against humanized mouse LLC-hPD-L1 cells implanted in hPD-1 knockin C57BL/6 mouse assessed as tumor growth inhibition at 25 mg/kg, ip administered for 12 days starting from day 7 post tumor implantation and measured every 2 days relative to control; assay type: functional; settings: LLC-hPD-L1, 288 h, time 12 day, read-out: TGI
LLC-hPD-L1 [8] = assay: Antitumor activity against humanized mouse LLC-hPD-L1 cells implanted in hPD-1 knockin C57BL/6 mouse assessed as reduction in M2 macrophages at 10 to 25 mg/kg, ip administered for 12 days starting from day 7 post tumor implantation by flow cytometry analysis; assay type: functional, organism-based; settings: dose 10-25 mg/kg, time 12.0 day
[9] = Toxicity in hPD-1 knockin C57BL/6 mouse implanted with humanized mouse MC38-hPD-L1 cells assessed as reduction in body weight at 10 to 25 mg/kg, ip administered for 12 days starting from day 7 post tumor implantation and measured every 3 to 4 days; assay type: organism-based; settings: in vivo, 288 h, dose 10-25 mg/kg, time 12 day
[10] = AUC (0 to infinity) in ICR mouse at 5 mg/kg, iv; assay type: ADME, organism-based; design: dose 5 mg/kg, route iv; settings: in vivo
[11] = Toxicity in ICR mouse assessed as reduction in heart weight at 500 to 5000 mg/kg, po administered via gavage for 2 weeks; assay type: organism-based; settings: in vivo, 336 h, dose 500-5000 mg/kg
MC38-hPD-L1 [12] = assay: Antitumor activity against humanized mouse MC38-hPD-L1 cells implanted in hPD-1 knockin C57BL/6 mouse assessed as increase in CD69-positive CD137-positive T cells at 10 to 25 mg/kg, ip administered for 12 days starting from day 7 post tumor implantation by flow cytometry analysis; assay type: functional, organism-based; settings: dose 10-25 mg/kg, time 12.0 day
MC38-hPD-L1 [13] = assay: as §2, with “tumor cell proliferation by measuring reduction in Ki67 expression” for “M2 macrophages”, “immunohistochemistry” for “flow cytometry”; assay type: functional, organism-based; settings: dose 10-25 mg/kg, time 12.0 day
MC38-hPD-L1 [14] = assay: Antitumor activity against humanized mouse MC38-hPD-L1 cells implanted in BALB/c nude mouse assessed as reduction in tumor growth at 10 to 25 mg/kg, ip administered for 10 days starting from day 6 post tumor implantation and measured every 2 days; assay type: functional, organism-based; settings: dose 10-25 mg/kg, time 10.0 day
Homo sapiens = species: Homo sapiens; assay: Internalization of PD-L1 in cytoplasm of human RKO cells transfected with DsRed and human calreticulin assessed as colocalization of PD-L1 with endoplasmic reticulum-resident calreticulin at 1 micromol/L incubated for 12 hrs by fluorescence microscopy; assay type: functional, cell-based; settings: dose 1.0 µmol/L
A549 = assay: Cytotoxicity against human A549 cells assessed as reduction in tumor proliferation at 10 to 20 uM incubated for 48 hrs by xCELLigence RTCA system analysis; assay type: functional, cell-based; settings: dose 10-20 µM
MC38-hPD-L1 [15] = assay: as §1, with “MC38-hPD-L1” for “LLC-hPD-L1”, “tumor cell apoptosis by measuring increase in cleaved caspase-3” for “GzmB”, “immunohistochemistry” for “flow cytometry”; assay type: functional, organism-based; settings: dose 10-25 mg/kg, time 12.0 day
LLC-hPD-L1 [16] = assay: Antitumor activity against humanized mouse LLC-hPD-L1 cells implanted in hPD-1 knockin C57BL/6 mouse assessed as reduction in MDSC cells at 10 to 25 mg/kg, ip administered for 12 days starting from day 7 post tumor implantation by flow cytometry analysis; assay type: functional, organism-based; settings: dose 10-25 mg/kg, time 12.0 day
LLC-hPD-L1 [17] = assay: Antitumor activity against humanized mouse LLC-hPD-L1 cells implanted in hPD-1 knockin C57BL/6 mouse assessed as increase in M1 macrophages at 10 to 25 mg/kg, ip administered for 12 days starting from day 7 post tumor implantation by flow cytometry analysis; assay type: functional, organism-based; settings: dose 10-25 mg/kg, time 12.0 day
[18] = Toxicity in ICR mouse assessed as reduction in spleen weight at 500 to 5000 mg/kg, po administered via gavage for 2 weeks; assay type: organism-based; settings: in vivo, 336 h, dose 500-5000 mg/kg
NCI-H460 = assay: Cytotoxicity against human NCI-H460 cells cocultured with human PBMC cells assessed as increase in clearance of tumor cells at 100 to 200 nM preincubated for 30 mins followed by NCI-H460 cells addition and further coincubated for 24 hrs with human PBMC cells by cell impedence assay; assay type: functional, cell-based; settings: dose 100-200 nM, time 24.5 hrs
LLC-hPD-L1 [19] = assay: Antitumor activity against humanized mouse LLC-hPD-L1 cells implanted in hPD-1 knockin C57BL/6 mouse assessed as increase in CD8-positive T cells at 10 to 25 mg/kg, ip administered for 12 days starting from day 7 post tumor implantation by flow cytometry analysis; assay type: functional, organism-based; settings: dose 10-25 mg/kg, time 12.0 day

COc1cc2c(cc1CN[C@@H](CO)C(=O)O)C(=O)N(c1cccc(-c3ccccc3)c1C)C2=O
pKd [1]: 7.15 | Activity (LLC-hPD-L1 [2]): Active | Activity (MC38-hPD-L1 [3]): Active | pIC50 [4]: 8.21 | inhibition [5]: Dose-Dependent Effect | Activity [6]: Non-Toxic | inhibition in vivo at 25 mg/kg [7]: 81.4% | Activity (LLC-hPD-L1 [8]): Active | Activity [9]: Non-Toxic | AUC(0-inf) [10]: 3570 ng·h/mL | Activity [11]: Non-Toxic | Activity (MC38-hPD-L1 [12]): Active | Activity (MC38-hPD-L1 [13]): Active | Activity (MC38-hPD-L1 [14]): inactive | Activity (Homo sapiens): Active | Activity (A549): inactive | Activity (MC38-hPD-L1 [15]): Active | Activity (LLC-hPD-L1 [16]): Active | Activity (LLC-hPD-L1 [17]): Active | Activity [18]: Non-Toxic | Activity (NCI-H460): Active | Activity (LLC-hPD-L1 [19]): Active
